One test deals with MV-4-11 cells. In words: Oncology cell growth assay MV-4-11 (CellTiter Glo). Type of test: cell-based. The conditions noted are these: Homo sapiens, MV4-11, 72 h; MV-4-11, 3d growth; read-out: Cell activity (IC50 μM) MV-4-11 3d-Growth. Summed up:
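Growth read by CellTiter Glo luminescence after 72 h compound treatment of MLL-AF4-bearing MV-4-11 cells (3000/well). Titration: 8 points, 1:3 steps, maximum 10 μM, 0.2% DMSO final. Data normalized to DMSO wells, four-parameter fit gives pIC50.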
(In ATP-based viability assays light output follows the ATP content of the culture.)

The next test deals with BRD4-BD12 (1-477) (Homo sapiens (Human), UniProt O60885). Kind of test: Alphascreen binding assay BRD4-BD12. The settings on record: BRD4(1 2) H4; read-out: Biochemical activity (IC50 μM) BRD4(1 2) H4. Summed up: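 In this competition format, compounds displace a biotinylated tetra-acetyl H4 peptide from E. coli-expressed human BRD4 bromodomain constructs captured on nickel chelate beads. The reaction runs at pH 7.5 with 2 mM DTT and detergent for 1 h at room temperature before a 30 min bead step.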
A general note: Bead proximity is the source of the signal in Alpha formats.

Consider `Cc1noc(C)c1-c1cnc2c(-c3ccc(C(=O)O)cc3)cn([C@H](c3ccccn3)C3CC3)c2c1` [P-0990, 4-[1-[(S)-cyclopropyl(2-pyridyl)methyl]-6-(3,5-dimethylisoxazol-4-yl)pyrrolo[3,2-b]pyridin-3-yl]benzoic acid], for which the half-maximal inhibitory concentration (IC50) in the test with MV-4-11 cells and at BRD4-BD12 (1-477) was under 1 µM each time.

Take `Cc1noc(C)c1-c1ccc2c(I)cn(C(c3ccccc3)c3ccccn3)c2c1` (stereo not drawn) [P-0991, 4-[3-iodo-1-[phenyl(2-pyridyl)methyl]indol-6-yl]-3,5-dimethyl-isoxazole]: the IC50 with MV-4-11 cells and at BRD4-BD12 (1-477) was under 1 µM in each case.

For the molecule `Cc1noc(C)c1-c1ccc2c(-c3ccc(C(=O)O)cc3)cn(C(c3ccccc3)c3ccccn3)c2c1` (stereo not drawn) [P-0992, 4-[6-(3,5-dimethylisoxazol-4-yl)-1-[phenyl(2-pyridyl)methyl]indol-3-yl]benzoic acid], the IC50 with MV-4-11 cells and at BRD4-BD12 (1-477) was under 1 µM in each case.

As for `COC(=O)c1ccc(-c2cn(C(c3ccccn3)C3CCCC3)c3cc(-c4c(C)noc4C)cnc23)cc1` (stereo not drawn) [P-0993, methyl 4-[1-[cyclopentyl(2-pyridyl)methyl]-6-(3,5-dimethylisoxazol-4-yl)pyrrolo[3,2-b]pyridin-3-yl]benzoate], the 50% inhibitory concentration (IC50) in the test on MV-4-11 cells and at BRD4-BD12 (1-477) was under 1 µM each time.

In the case of `COC(=O)Cc1ccc(-c2cn(C(c3ccccn3)C3CCCC3)c3cc(-c4c(C)noc4C)cnc23)cc1` (stereo not drawn) [P-0994, methyl 2-[4-[1-[cyclopentyl(2-pyridyl)methyl]-6-(3,5-dimethylisoxazol-4-yl)pyrrolo[3,2-b]pyridin-3-yl]phenyl]acetate], the IC50 in the test on MV-4-11 cells and at BRD4-BD12 (1-477) was under 1 µM each time.

Consider `Cc1noc(C)c1-c1cnc2c(-c3ccc(C(=O)O)cc3)cn(C(c3ccccn3)C3CCCC3)c2c1` (stereo not drawn) [P-0995, 4-[1-[cyclopentyl(2-pyridyl)methyl]-6-(3,5-dimethylisoxazol-4-yl)pyrrolo[3,2-b]pyridin-3-yl]benzoic acid], for which the IC50 with MV-4-11 cells and on BRD4-BD12 (1-477) was under 1 µM throughout.

Consider `Cc1noc(C)c1-c1cnc2c(-c3ccc(CC(=O)O)cc3)cn(C(c3ccccn3)C3CCCC3)c2c1` (stereo not drawn) [P-0996, 2-[4-[1-[cyclopentyl(2-pyridyl)methyl]-6-(3,5-dimethylisoxazol-4-yl)pyrrolo[3,2-b]pyridin-3-yl]phenyl]acetic acid], for which the IC50 in the test with MV-4-11 cells and on BRD4-BD12 (1-477) was under 1 µM each time.

For the molecule `Cc1noc(C)c1-c1cnc2c(I)cn(C(c3ccccn3)C3CCCC3)c2c1` (stereo not drawn) [P-0997, 4-[1-[cyclopentyl(2-pyridyl)methyl]-3-iodo-pyrrolo[3,2-b]pyridin-6-yl]-3,5-dimethyl-isoxazole], the IC50 in the test with MV-4-11 cells and at BRD4-BD12 (1-477) was under 1 µM throughout.

In the case of `COC(=O)c1cc(-c2cn([C@@H](C)c3ccccn3)c3cc(-c4c(C)noc4C)cnc23)ccc1C` [P-0998, methyl 5-[6-(3,5-dimethylisoxazol-4-yl)-1-[(1S)-1-(2-pyridyl)ethyl]pyrrolo[3,2-b]pyridin-3-yl]-2-methyl-benzoate], the half-inhibitory concentration (IC50) in the test with MV-4-11 cells and on BRD4-BD12 (1-477) was under 1 µM in each case.

With `Cc1ccc(-c2cn([C@@H](C)c3ccccn3)c3cc(-c4c(C)noc4C)cnc23)cc1C(=O)O` [P-0999, 5-[6-(3,5-dimethylisoxazol-4-yl)-1-[(1S)-1-(2-pyridyl)ethyl]pyrrolo[3,2-b]pyridin-3-yl]-2-methyl-benzoic acid], the IC50 with MV-4-11 cells and at BRD4-BD12 (1-477) was under 1 µM each time.

Turning to `Cc1noc(C)c1-c1cnc2c(-c3csc(C(=O)O)c3)cn([C@@H](C)c3ccccn3)c2c1` [P-1005, 4-[6-(3,5-dimethylisoxazol-4-yl)-1-[(1S)-1-(2-pyridyl)ethyl]pyrrolo[3,2-b]pyridin-3-yl]thiophene-2-carboxylic acid], the half-maximal inhibitory concentration (IC50) (as a rule, the concentration at which inhibition is half-maximal) in the test with MV-4-11 cells is 1 to 10 µM; at BRD4-BD12 (1-477), under 1 µM.

In the case of `COC(=O)c1ccc(-c2cn([C@@H](C)c3ccccn3)c3cc(-c4c(C)noc4C)cnc23)s1` [P-1006, methyl 5-[6-(3,5-dimethylisoxazol-4-yl)-1-[(1S)-1-(2-pyridyl)ethyl]pyrrolo[3,2-b]pyridin-3-yl]thiophene-2-carboxylate], the half-inhibitory concentration (IC50) in the test on MV-4-11 cells and at BRD4-BD12 (1-477) was under 1 µM in each case.

Turning to `COC(=O)c1ccc(-c2cn(C(c3ccccn3)C3CCC3)c3cc(-c4c(C)noc4C)cnc23)cc1` (stereo not drawn) [P-1011, methyl 4-[1-[cyclobutyl(2-pyridyl)methyl]-6-(3,5-dimethylisoxazol-4-yl)pyrrolo[3,2-b]pyridin-3-yl]benzoate], the half-inhibitory concentration (IC50) in the test with MV-4-11 cells and at BRD4-BD12 (1-477) was under 1 µM in each case.

On to `Cc1noc(C)c1-c1cnc2c(-c3ccc(C(=O)O)cc3)cn(C(c3ccccn3)C3CCC3)c2c1` (stereo not drawn) [P-1012, 4-[1-[cyclobutyl(2-pyridyl)methyl]-6-(3,5-dimethylisoxazol-4-yl)pyrrolo[3,2-b]pyridin-3-yl]benzoic acid], for which the concentration for half-maximal inhibition (IC50) with MV-4-11 cells and on BRD4-BD12 (1-477) was under 1 µM in each case.

`COC(=O)Cc1ccc(-c2cn(C(c3ccccn3)C3CCC3)c3cc(-c4c(C)noc4C)cnc23)cc1` (stereo not drawn) [P-1013, methyl 2-[4-[1-[cyclobutyl(2-pyridyl)methyl]-6-(3,5-dimethylisoxazol-4-yl)pyrrolo[3,2-b]pyridin-3-yl]phenyl]acetate]: the IC50 in the test with MV-4-11 cells and on BRD4-BD12 (1-477) was under 1 µM each time.

`Cc1noc(C)c1-c1cnc2c(-c3ccc(C(=O)O)cc3)cn(C(c3ccccn3)C3CCCCC3)c2c1` (stereo not drawn) [P-1014, 4-[1-[cyclohexyl(2-pyridyl)methyl]-6-(3,5-dimethylisoxazol-4-yl)pyrrolo[3,2-b]pyridin-3-yl]benzoic acid]: the IC50 with MV-4-11 cells and on BRD4-BD12 (1-477) was under 1 µM throughout.

Take `Cc1noc(C)c1-c1cnc2c(-c3ccc(CC(=O)O)cc3)cn(C(c3ccccn3)C3CCC3)c2c1` (stereo not drawn) [P-1015, 2-[4-[1-[cyclobutyl(2-pyridyl)methyl]-6-(3,5-dimethylisoxazol-4-yl)pyrrolo[3,2-b]pyridin-3-yl]phenyl]acetic acid]: the concentration for half-maximal inhibition (IC50) in the test on MV-4-11 cells and at BRD4-BD12 (1-477) was under 1 µM each time.

Turning to `COC(=O)c1ccc(-c2cn(C(c3ccccn3)C3CCCCC3)c3cc(-c4c(C)noc4C)cnc23)cc1` (stereo not drawn) [P-1016, methyl 4-[1-[cyclohexyl(2-pyridyl)methyl]-6-(3,5-dimethylisoxazol-4-yl)pyrrolo[3,2-b]pyridin-3-yl]benzoate], the IC50 with MV-4-11 cells and on BRD4-BD12 (1-477) was under 1 µM in each case.

Take `COC(=O)Cc1ccc(-c2cn(C(c3ccccn3)C3CCCCC3)c3cc(-c4c(C)noc4C)cnc23)cc1` (stereo not drawn) [P-1017, methyl 2-[4-[1-[cyclohexyl(2-pyridyl)methyl]-6-(3,5-dimethylisoxazol-4-yl)pyrrolo[3,2-b]pyridin-3-yl]phenyl]acetate]: the IC50 in the test with MV-4-11 cells and at BRD4-BD12 (1-477) was under 1 µM throughout.

For `Cc1noc(C)c1-c1cnc2c(-c3ccc(CC(=O)O)cc3)cn(C(c3ccccn3)C3CCCCC3)c2c1` (stereo not drawn) [P-1018, 2-[4-[1-[cyclohexyl(2-pyridyl)methyl]-6-(3,5-dimethylisoxazol-4-yl)pyrrolo[3,2-b]pyridin-3-yl]phenyl]acetic acid], the IC50 in the test on MV-4-11 cells and at BRD4-BD12 (1-477) was under 1 µM in each case.

`Cc1ccc(-c2cn([C@@H](C)c3ccccn3)c3cc(-c4c(C)noc4C)cnc23)cn1` [P-1019, 3,5-dimethyl-4-[3-(6-methyl-3-pyridyl)-1-[(1S)-1-(2-pyridyl)ethyl]pyrrolo[3,2-b]pyridin-6-yl]isoxazole]: the IC50 with MV-4-11 cells and on BRD4-BD12 (1-477) was under 1 µM each time.

Values taken from patent US10519177B2, “Heterocyclic compounds and uses thereof” (Plexxikon Inc., priority 2013, dated 2019).
